A short description of this data set: Example 2, second clinical study: pharmacokinetics, bioavailability, food and rabeprazole effect. It counts as in vivo, human. The note with it: for bioavailability: human, in vivo, po, 20 mg, 20 mg film-coated tablet, fasted, vs IV infusion. The protocol: The study comprises a screening period of maximum 28 days, and five periods during which subjects will participate from Day −1 of Period 1 to 72 hours after the AZD5055 dose in Period 5.
Period 1: On Day 1, the subjects will receive either 5 mg AZD5055 as a 20-minute IV infusion (Treatment A) in an overnight fasted state or AZD5055 20 mg as oral suspension (Treatment B) in an overnight fasted state.
Period 2: On Day 1 (Study Day 4), the subjects will receive 20 mg AZD5055 film-coated tablet (Treatment C) in an overnight fasted state.
Period 3: On Day 1 (Study Day 8) the subjects will receive a standardized high-fat breakfast 30 minutes before 20 mg AZD5055 administered as film-coated tablet (Treatment D).
Period 4: On Study Day 10, three days prior to Day 1, 20 mg rabeprazole will be administered twice daily. On Day 1 (Study Day 13), 20 mg AZD5055 film-coated tablet will be administered together with rabeprazole and rabeprazole dosing will continue twice daily (Treatment E).
Period 5: On Day 1 (Study Day 17) the participants will receive a low-fat breakfast 30 minutes before 20 mg AZD5055 film-coated tablet administered together with 20 mg rabeprazole.
Rabeprazole will continue twice daily, the last dose is on the evening of Study Day 18 (Treatment F).
There will be a minimum washout of 3 days between the AZD5055 dose administration in Period 1 and Period 2 and a minimum washout of 4 days between AZD5055 doses administrations for subsequent study periods. Repeated PK (pharmacokinetic) sampling will be performed pre-dose to 48 hours after dosing of AZD5055 of each period. Subjects will be discharged on Study Day 20 (Day 4 of Period 5), after all the samples have been collected and all the assessments have been performed.
Rabeprazole is administered as oral doses of 20 mg BID in the morning and evening. Pre-treatment with rabeprazole for 3 days is required to reach the PD (pharmacodynamic) steady state of pH elevation prior to administration of AZD5055.
A high-fat, high-calorie breakfast constitutes the following: 2 eggs fried in butter; 2 strips of bacon; 2 slices of toast with butter; 112 g/4 oz of hash-brown potatoes; 240 mL/8 oz of whole milk.
A low-fat, low-calorie breakfast constitutes the following: 1 boiled egg; 1 packet flavoured instant oatmeal made with water; 240 mL/8 oz milk (1% fat).
Pharmacokinetic Parameters—Pharmacokinetic parameters of AZD5055 included, but were not limited to, Cmax, AUCinf, and AUClast.
Approximately 18 healthy participants were enrolled to ensure that at least 15 participants completed the 5-period study. It was expected that the proposed sample size would give adequate information on the effect of formulation and concomitant treatment on the exposure of AZD5055, while exposing as few participants as possible to study procedures. Interpretation of the results were based on the estimated geometric mean ratio (GMR) and the associated 90% confidence interval (CI) between the combination of test and reference for AUC and Cmax.
Plasma concentrations were listed for each participant at each actual sampling time and summarized by treatment and nominal sampling time, using the same descriptive statistics as for the PK parameters. Graphical presentations included individual and geometric mean time-concentration curves (actual sampling time for individual curves and nominal sampling time for mean curves) on linear and semi-logarithmic scale. Pharmacokinetic variables and diagnostics of the PK analysis were listed, and PK variables were summarized by treatment using descriptive statistics (n, geometric mean, geometric coefficient of variation [gCV; %], arithmetic mean, arithmetic standard deviation [SD], minimum [min], median, and maximum [max]) for all variables except tmax, which were summarized using n, min, median, and max. […]

Where [1] appears, read: 20 mg film-coated tablet vs oral suspension.
[2] abbreviates: tablet + rabeprazole fasted vs AZD5055 fasted alone.
The mark [3] stands for this setting: tablet + rabeprazole fed vs AZD5055 fasted alone.
Where [4] appears, read: tablet with rabeprazole, fed vs fasted.

Read-outs that look alike come from different tables or passages of the source.

`Cc1cc(-c2nccc3c2ccn3CC(=O)Nc2ccc(-c3cnccn3)cn2)ccn1` [AZD5055, 2-[4-(2-methyl-4-pyridyl)pyrrolo[3,2-c]pyridin-1-yl]-N-(5-pyrazin-2-yl-2-pyridyl)acetamide]: under setting [1], the “reduction in Cmax, tablet vs oral suspension” value was “approximately 35%”; the “total systemic exposure (AUCinf and AUClast), tablet vs oral suspension” value is given as “comparable”. Besides, the “Cmax relative to IV dose” value (film-coated tablet, percent of the IV dose) is given as “approximately 21%”. Moreover, the bioavailability (read-out: absolute bioavailability based on AUCinf) was approximately 66%. The bioavailability (read-out: absolute bioavailability based on AUClast) is approximately 64%. For the same compound, under setting [2], the “change in total systemic exposure (AUCinf and AUClast) with rabeprazole, fasted” value was “no change in total systemic exposure”; the “reduction in Cmax with rabeprazole, fasted” value was 32%. Besides, under setting [3], the “change in total systemic exposure (AUCinf and AUClast) with rabeprazole, fed” value is given as “no change in total systemic exposure”; the “reduction in Cmax with rabeprazole, fed” value is reported as 20%. Under setting [4], the “food effect on total systemic exposure with rabeprazole” value is “food did not impact total systemic exposure” and the “increase in Cmax by food with rabeprazole” value is listed as “approximately 17%”.
